In assay [1] the target is α5-GABAA receptor (α5, β3, γ2 subunits) (Homo sapiens (Human), UniProt P18507+P31644). As to the kind of experiment: Whole cell patch clamp, inverse agonist efficacy in HEK293 cells expressing α5-GABAA receptor. The format is cell-based. Conditions: HEK293, drug 100 nM, GABA 0.05 μM, −60 mV; read-out: Compound inverse agonist efficacy %. The text has this: The inventors used electrophysiological methods to determine the inverse agonist efficacy of the drugs to be tested on the α5-GABAA receptor. The detailed methods are as follows:
Different subunits of the GABAA receptor were co-expressed in the HEK293 cell line to construct a fully functional GABAA receptor. The α, β, and γ subunits are essential to form a complete functional GABAA receptor. In this example, the present disclosure had established the following cell model: α5 subunit (see GenBank Accession No.: NM_000810.3 for protein sequences), β3 subunit (see GenBank Accession No.: NM_000814.5 for protein sequences), and γ2 subunit (see GenBank Accession No.: NM_000816.3 for protein sequences) were co-expressed in the HEK293 cell line, followed by screening the monoclonal stably transfected cell line. This cell line expressed a fully functional α5-GABAA receptor.
The monoclonal stably transfected HEK293 cell line expressing α5-GABAA receptor were cultured in 10 cm culture dishes and passaged when the cells grew to 80% to 90% confluent. During passaging, the culture medium was aspirated first, then 3 mL of DPBS phosphate buffer salt (Gibco™) was added to the culture dishes, and the culture dishes were shaken slightly, and DPBS was aspirated. 1 mL of trypsin (TrypLE Express, Gibco™) was added thereto, and the cells were digested at 37° C. for 1-2 minutes. Then 3 mL of complete medium (DMEM+10% FBS (Gibco™)) was added and the cells at the bottom of the culture dishes were dispersed. The cell suspension was transferred to a 15 mL centrifugal tube (Corning) and then centrifuged at 200 g for 3 minutes. The supernatant was discarded, 4 mL of complete medium was added, and the cells were gently blown and resuspended for use. If cell passaging was performed, the cell suspension was diluted at a ratio of 1:5 or 1:10. If cells for electrophysiological detection were prepared, the cell suspension was diluted in a ratio of 1:12, then added into a 24-well dish (Corning™) in which glass slides were placed and pretreated with Poly-D-Lysine, and the experiment was carried out after the cells adhered to the wall. The cells used for electrophysiology was cultured no more than 48 hours.
Drug concentration setting: The final drug concentration used in drug screening was 100 nM, and the GABA concentration was 0.05 μM. The whole cell patch clamp technique was used in electrophysiological assays, which could refer to the literature (I. Lecker, Y. Yin, D. S. Wang and B. A. Orser, British Journal of Anaesthesia, 2013, 110 (Si), i73-i81). The compositions of the extracellular solution for electrophysiology assay were as follows: 150 mM NaCl, 5 mM KCl, 2.5 mM CaCl2, 1 mM MgCl2, 10 mM HEPES, and 10 mM glucose (pH 7.4); the formulation of the electrode internal fluid for electrophysiology use was as follows: 140 mM CsCl, 11 mM EGTA, 10 mM HEPES, 2 mM CaCl2, 1 mM MgCl2, 4 mM MgATP, and 2 mM TEA (pH 7.3). The signal acquisition used an EPC-10 amplifier and the PatchMaster software (HEKA) or Axon700B amplifier and Clampex software (AXON). The recording electrode was pulled from borosilicate glass, and the electrode resistance was 4 to 6 MQ. The ALA-VC-8PG™ system was used for drug application. Single cell that grew independently was selected for recording. During recording, the cell membrane potential was clamped at −60 mV. During experiment, an extracellular solution was applied outside the cells for about 20 seconds. When the baseline reached to a stable state, the extracellular solution was switched to the GABA solution to induce an inward current. After about 20 to 40 seconds until the current was stable, the solution was switched to a corresponding drug solution to detect the effect of the drug. At last, the solution was switched to the extracellular solution, and the experiment was terminated when the baseline returned to the level before drug application. […]
Background: The patch-clamp technique gives a direct electrical read-out from membranes.

The target in assay [2] is human α5β3γ2 receptors (α5-GABAA receptor) (Homo sapiens (Human), UniProt P18507+P31644). The assay is described as follows: 3H-flunitrazepam competition binding, human α5β3γ2 GABAA receptor. Conditions: HEK293 cell membranes, 1 nM 3H-flunitrazepam. The gist of the method: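 HEK293 membranes stably expressing each human receptor subtype ([…]) competed against 1 nM 3H-flunitrazepam in Tris buffer, 1 h at room temperature; flumazenil defined the low-signal control. Eight-point 4-fold test-compound dilutions; GF/C filtration and scintillation counting gave IC50 by curve fitting, converted to Ki.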

pKi: −log10 of the molar value. Where two headings read alike, the source gives them in different places.

Drawing on patent US20250136581A1, “SUBSTITUTED TRIAZOLE DERIVATIVE, PREPARATION METHOD THEREFOR, PHARMACEUTICAL COMPOSITION THEREOF, AND USE THEREOF” (SHANGHAI SIMR BIOTECHNOLOGY CO., LTD., priority 2021, published 2025), this text covers inhibition and Ki for 18 compounds.

For orientation: pKi means −log10 of the Ki, conventionally taken in molar units.

As for `Cc1nnn(-c2ccc(C(F)F)cc2)c1COc1ccc(N2CC(C(=O)NC3CCN(C)CC3)C2)nn1` [Example 46, 1-(6-((1-(4-(Difluoromethyl)phenyl)-4-methyl-1H-1,2,3-triazol-5-yl)methoxy)pyridazin-3-yl)-N-(1-methylpiperidin-4-yl)azetidine-3-carboxamide], the inhibition at 0.1 µM in assay [1] is 41.8%. In addition, the pKi in assay [2] (read-out: α5-GABAAR Ki) is 8.72.

Take `Cc1nnn(-c2ccc(C(F)F)cc2)c1COc1ccc(N2CC(C(=O)NC3CCOCC3)C2)nn1` [Example 50, 1-(6-((1-(4-(Difluoromethyl)phenyl)-4-methyl-1H-1,2,3-triazol-5-yl)methoxy)pyridazin-3-yl)-N-(tetrahydro-2H-pyran-4-yl)azetidine-3-carboxamide]: the inhibition at 0.1 µM in assay [1] was 41.5%. In addition, the pKi in assay [2] (read-out: α5-GABAAR Ki) is 8.19.

In the case of `Cc1nnn(-c2ccc(C(F)F)cc2)c1COc1ccc(N2CC(C(=O)Nc3ccncc3)C2)nn1` [Example 52, 1-(6-((1-(4-(Difluoromethyl)phenyl)-4-methyl-1H-1,2,3-triazol-5-yl)methoxy)pyridazin-3-yl)-N-(pyridin-4-yl)azetidine-3-carboxamide], the inhibition at 0.1 µM in assay [1] came to 45.9%. In addition, the pKi in assay [2] (read-out: α5-GABAAR Ki) is 8.96.

Take `Cc1nnn(-c2ccc(C(F)F)cc2)c1COc1ccc(C2=CC(=O)NCC2)nn1` [Example 57, 4-(6-((1-(4-(Difluoromethyl)phenyl)-4-methyl-1H-1,2,3-triazol-5-yl)methoxy)pyridazin-3-yl)-5,6-dihydropyridin-2(1H)-one]: the inhibition at 0.1 µM in assay [1] was 52%. In addition, the negative-log Ki (pKi) in assay [2] (read-out: α5-GABAAR Ki) is 9.57.

Consider `Cc1nnn(-c2ccc(C(F)F)cc2)c1COc1ccc(N2CCN(C3CCOC3)C(=O)C2)nn1` (stereo not drawn) [Example 58, 4-(6-((1-(4-(Difluoromethyl)phenyl)-4-methyl-1H-1,2,3-triazol-5-yl)methoxy)pyridazin-3-yl)-1-(tetrahydrofuran-3-yl)piperazin-2-one], for which the inhibition at 0.1 µM in assay [1] worked out at 46%. In addition, in assay [2] (read-out: α5-GABAAR Ki), the pKi was 8.73.

In the case of `Cc1nnn(-c2ccc(C(F)F)cc2)c1COc1ccc(N2CCN(CCO)C(=O)C2)nn1` [Example 59, 4-(6-((1-(4-(Difluoromethyl)phenyl)-4-methyl-1H-1,2,3-triazol-5-yl)methoxy)pyridazin-3-yl)-1-(2-hydroxyethyl)piperazin-2-one], the inhibition at 0.1 µM in assay [1] was found to be 44.9%. Also, the negative-log Ki (pKi) in assay [2] (read-out: α5-GABAAR Ki) was 8.40.

Take `Cc1nnn(-c2ccc(C(F)F)cc2)c1COc1ccc(N2CCN(Cc3ccccn3)C(=O)C2)nn1` [Example 60, 4-(6-((1-(4-(Difluoromethyl)phenyl)-4-methyl-1H-1,2,3-triazol-5-yl)methoxy)pyridazin-3-yl)-1-(pyridin-2-ylmethyl)piperazin-2-one]: in assay [1], the inhibition at 0.1 µM was found to be 47.2%. Also, in assay [2] (read-out: α5-GABAAR Ki), the pKi is 8.88.

On to `Cc1nnn(-c2ccc(C(F)F)cc2)c1COc1ccc(N2CCN(CC(F)(F)F)C(=O)C2)nn1` [Example 62, 4-(6-((1-(4-(Difluoromethyl)phenyl)-4-methyl-1H-1,2,3-triazol-5-yl)methoxy)pyridazin-3-yl)-1-(2,2,2-trifluoroethyl)piperazin-2-one], for which the inhibition at 0.1 µM in assay [1] is 44.6%. For the same compound, the pKi in assay [2] (read-out: α5-GABAAR Ki) is 8.93.

With `CNS(=O)(=O)C1CCN(c2ccc(OCc3c(C)nnn3-c3ccc(C(F)F)cc3)nn2)C1` (stereo not drawn) [Example 64, 1-(6-((1-(4-(Difluoromethyl)phenyl)-4-methyl-1H-1,2,3-triazol-5-yl)methoxy)pyridazin-3-yl)-N-methylpyrrolidine-3-sulfonamide], the inhibition at 0.1 µM in assay [1] is 41.1%. Besides, the pKi in assay [2] (read-out: α5-GABAAR Ki) was 8.84.

`Cc1nnn(-c2ccc(C(F)F)cc2)c1COc1ccc(N2CCN3C(=O)CNC(=O)[C@H]3C2)nn1` [Example 65, (R)-8-(6-((1-(4-(Difluoromethyl)phenyl)-4-methyl-1H-1,2,3-triazol-5-yl)methoxy)pyridazin-3-yl)hexahydro-1H-pyrazino[1,2-a]pyrazine-1,4(6H)-dione]: the inhibition at 0.1 µM in assay [1] came to 56.1%. In addition, the pKi in assay [2] (read-out: α5-GABAAR Ki) is 8.63.

In the case of `Cc1nnn(-c2ccc(C(F)F)cc2)c1COc1ccc(N2CC(CO)OC2=O)nn1` (stereo not drawn) [Example 66, 3-(6-((1-(4-(Difluoromethyl)phenyl)-4-methyl-1H-1,2,3-triazol-5-yl)methoxy)pyridazin-3-yl)-5-(hydroxymethyl)oxazolidin-2-one], the inhibition at 0.1 µM in assay [1] came out at 52.7%. Also, the negative logarithm of the Ki (pKi) in assay [2] (read-out: α5-GABAAR Ki) is 8.39.

Regarding `Cc1nnn(-c2ccc(C(F)F)cc2)c1COc1ccc(N2CC(=O)N3CCN(C)CC3C2)nn1` (stereo not drawn) [Example 69, 2-(6-((1-(4-(Difluoromethyl)phenyl)-4-methyl-1H-1,2,3-triazol-5-yl)methoxy)pyridazin-3-yl)-8-methylhexahydro-1H-pyrazino[1,2-a]pyrazin-4(6H)-one], in assay [1], the inhibition at 0.1 µM came to 55.1%. Further, in assay [2] (read-out: α5-GABAAR Ki), the negative-log Ki (pKi) is 9.05.

As to `Cc1nnn(-c2ccc(F)cn2)c1COc1ccc(N2CCNC(=O)C2)nn1` [Example 73, 4-(6-((1-(5-Fluoropyridin-2-yl)-4-methyl-1H-1,2,3-triazol-5-yl)methoxy)pyridazin-3-yl)piperazin-2-one], the inhibition at 0.1 µM in assay [1] is 41.3%. Besides, the pKi in assay [2] (read-out: α5-GABAAR Ki) was 8.31.

Consider `Cc1nnn(-c2ccc(C(F)F)cc2)c1COc1ccc(C2=CCCOC2)nn1` [Example 90, 3-((1-(4-(Difluoromethyl)phenyl)-4-methyl-1H-1,2,3-triazol-5-yl)methoxy)-6-(5,6-dihydro-2H-pyran-3-yl)pyridazine], for which, in assay [1], the inhibition at 0.1 µM was found to be 49.2%. Also, the negative-log Ki (pKi) in assay [2] (read-out: α5-GABAAR Ki) is 9.12.

As for `Cc1nnn(-c2ccc(C(F)F)cc2)c1COc1ccc(N2CC(=O)N3CCN(Cc4ncccn4)CC3C2)nn1` (stereo not drawn) [Example 92, 2-(6-((1-(4-(Difluoromethyl)phenyl)-4-methyl-1H-1,2,3-triazol-5-yl)methoxy)pyridazin-3-yl)-8-(pyrimidin-2-ylmethyl)octahydro-4H-pyrazino[1,2-a]pyrazin-4-one], the inhibition at 0.1 µM in assay [1] came to 49.7%. In assay [2] (read-out: α5-GABAAR Ki), the pKi was 8.96.

On to `Cc1nnn(-c2ccc(C(F)F)cc2)c1COc1ccc(N2CCN(CC3CCCO3)C(=O)C2)nn1` (stereo not drawn) [Example 96, 4-(6-((1-(4-(Difluoromethyl)phenyl)-4-methyl-1H-1,2,3-triazol-5-yl)methoxy)pyridazin-3-yl)-1-((tetrahydrofuran-2-yl)methyl)piperazin-2-one], for which the inhibition at 0.1 µM in assay [1] came out at 46.5%. In addition, the pKi in assay [2] (read-out: α5-GABAAR Ki) was 8.87.

Take `Cc1nnn(-c2ccc(C(F)F)cc2)c1COc1ccc(N2CCN(CC3CC3)C(=O)C2)nn1` [Example 97, 1-(Cyclopropylmethyl)-4-(6-((1-(4-(difluoromethyl)phenyl)-4-methyl-1H-1,2,3-triazol-5-yl)methoxy)pyridazin-3-yl)piperazin-2-one]: in assay [1], the inhibition at 0.1 µM is 49.2%. In assay [2] (α5-GABAAR Ki), this compound showed a pKi of 8.95.

In the case of `Cc1nnn(-c2ccc(C(F)F)cc2)c1COc1ccc(N2CCN(CC3CCOC3)C(=O)C2)nn1` (stereo not drawn) [Example 98, 4-(6-((1-(4-(Difluoromethyl)phenyl)-4-methyl-1H-1,2,3-triazol-5-yl)methoxy)pyridazin-3-yl)-1-((tetrahydrofuran-3-yl)methyl)piperazin-2-one], the inhibition at 0.1 µM in assay [1] turned out to be 53.7%. Moreover, the pKi in assay [2] (read-out: α5-GABAAR Ki) is 8.82.
